Laboratory results published in US5432261A, “Motlin-like polypeptide and use thereof” (priority 1989, dated 1995).
Read-outs that look alike come from different tables or passages of the source. Square brackets hold non-standard residues; d marks the D form. Peptide text beside a SMILES is read from it. hSer = N[C@@H](CCO)C(=O)O

Target: upper small intestine of rabbit (Oryctolagus cuniculus, UniProt G1T803)
Assay: Intestinal contraction activity by Magnus method using upper small intestine of rabbit
Method: An intestinal contraction activity was measured by Magnus method using upper small intestine of rabbit ["J. Pharm. Pharmac.", Vol. 28, pages 650-651 (1976)], on each motilin-like polypeptides (Example 1, wherein R1 is Hse, Asp-Gly-Ile-Phe-Hse, or Arg-Ile-Phe-Hse) according to the invention, as test samples and a conventional pure [Leu^13 ]-motilin, as control sample. The activities of the test samples and control sample were compared, under assumption of that an contraction activity caused by 10^-6 M acetylcholine is 100%.

Chain of upper small intestine of rabbit (G1T803 1-400): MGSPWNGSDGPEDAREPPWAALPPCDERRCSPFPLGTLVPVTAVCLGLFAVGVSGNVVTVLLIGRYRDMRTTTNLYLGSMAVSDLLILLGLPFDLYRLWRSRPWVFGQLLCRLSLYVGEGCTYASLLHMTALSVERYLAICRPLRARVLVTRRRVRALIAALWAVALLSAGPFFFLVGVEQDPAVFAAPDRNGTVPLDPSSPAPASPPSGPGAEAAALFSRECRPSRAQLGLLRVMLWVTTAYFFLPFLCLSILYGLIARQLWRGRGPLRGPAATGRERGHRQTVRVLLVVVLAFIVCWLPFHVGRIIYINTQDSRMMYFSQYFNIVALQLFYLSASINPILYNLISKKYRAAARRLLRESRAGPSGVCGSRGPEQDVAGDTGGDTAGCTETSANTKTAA

Activity in vitro (%)	Compound	Activity in vitro (%) (Magnus method, from ED50, contraction activity of native motilin = 100%)
110	CC[C@H](C)[C@H](NC(=O)[C@H](CCC(=O)O)NC(=O)CNC(=O)[C@H](Cc1ccc(O)cc1)NC(=O)[C@@H](NC(=O)[C@H](Cc1ccccc1)NC(=O)[C@@H](NC(=O)[C@@H]1CCCN1C(=O)[C@@H](NC(=O)[C@@H](N)Cc1ccccc1)C(C)C)[C@@H](C)CC)[C@@H](C)O)C(=O)N[C@@H](CCC(N)=O)C(=O)N[C@@H](CCCNC(=N)N)C(=O)N[C@@H](CC(C)C)C(=O)N[C@@H](CCC(N)=O)C(=O)N[C@@H](CCC(=O)O)C(=O)N[C@@H](CCCCN)C(=O)N[C@@H](CCC(=O)O)C(=O)N[C@@H](CCCNC(=N)N)C(=O)N[C@@H](CC(N)=O)C(=O)N[C@@H](CCCCN)C(=O)NCC(=O)N[C@@H](CCC(N)=O)C(=O)N[C@@H](CCO)C(=O)O [(10) -Ile--Leu--Hse] (H-FVPIFTYGEIQRLQEKERNKGQ[hSer]-OH)	–
–	CC[C@H](C)[C@H](NC(=O)[C@@H]1CCCN1C(=O)[C@@H](NC(=O)[C@@H](N)Cc1ccccc1)C(C)C)C(=O)N[C@@H](Cc1ccccc1)C(=O)N[C@H](C(=O)N[C@@H](Cc1ccc(O)cc1)C(=O)NCC(=O)N[C@@H](CCC(=O)O)C(=O)N[C@@H](CC(C)C)C(=O)N[C@@H](CCC(N)=O)C(=O)N[C@@H](CCCNC(=N)N)C(=O)N[C@@H](CCSC)C(=O)N[C@@H](CCC(N)=O)C(=O)N[C@@H](CCC(=O)O)C(=O)N[C@@H](CCCCN)C(=O)N[C@@H](CCC(=O)O)C(=O)N[C@@H](CCCNC(=N)N)C(=O)N[C@@H](CC(N)=O)C(=O)N[C@@H](CCCCN)C(=O)NCC(=O)N[C@@H](CCC(N)=O)C(=O)O)[C@@H](C)O [motilin, reference compound]	100
110	CC[C@H](C)[C@H](NC(=O)[C@@H]1CCCN1C(=O)[C@@H](NC(=O)[C@@H](N)Cc1ccccc1)C(C)C)C(=O)N[C@@H](Cc1ccccc1)C(=O)N[C@H](C(=O)N[C@@H](Cc1ccc(O)cc1)C(=O)NCC(=O)N[C@@H](CCC(=O)O)C(=O)N[C@@H](CC(C)C)C(=O)N[C@@H](CCC(=O)O)C(=O)N[C@@H](CCCNC(=N)N)C(=O)N[C@@H](CC(C)C)C(=O)N[C@@H](CCC(N)=O)C(=O)N[C@@H](CCC(=O)O)C(=O)N[C@@H](CCCCN)C(=O)N[C@@H](CCC(=O)O)C(=O)N[C@@H](CCCNC(=N)N)C(=O)N[C@@H](CC(N)=O)C(=O)N[C@@H](CCCCN)C(=O)NCC(=O)N[C@@H](CCC(N)=O)C(=O)N[C@@H](CCO)C(=O)O)[C@@H](C)O [(11) -Glu--Leu--Hse] (H-FVPIFTYGELERLQEKERNKGQ[hSer]-OH)	–
